According to publication PMC4619123 (Virology, 2015):
pIC50: −log10 of the molar value.

Target: JAK1 (Homo sapiens, UniProt P23458)
Assay: ADP-Glo luminescent kinase assay, recombinant JAK1, Poly E4Y1 substrate, […] ATP
Assay type: biochemical

JAK1, sequence (P23458 whole entry): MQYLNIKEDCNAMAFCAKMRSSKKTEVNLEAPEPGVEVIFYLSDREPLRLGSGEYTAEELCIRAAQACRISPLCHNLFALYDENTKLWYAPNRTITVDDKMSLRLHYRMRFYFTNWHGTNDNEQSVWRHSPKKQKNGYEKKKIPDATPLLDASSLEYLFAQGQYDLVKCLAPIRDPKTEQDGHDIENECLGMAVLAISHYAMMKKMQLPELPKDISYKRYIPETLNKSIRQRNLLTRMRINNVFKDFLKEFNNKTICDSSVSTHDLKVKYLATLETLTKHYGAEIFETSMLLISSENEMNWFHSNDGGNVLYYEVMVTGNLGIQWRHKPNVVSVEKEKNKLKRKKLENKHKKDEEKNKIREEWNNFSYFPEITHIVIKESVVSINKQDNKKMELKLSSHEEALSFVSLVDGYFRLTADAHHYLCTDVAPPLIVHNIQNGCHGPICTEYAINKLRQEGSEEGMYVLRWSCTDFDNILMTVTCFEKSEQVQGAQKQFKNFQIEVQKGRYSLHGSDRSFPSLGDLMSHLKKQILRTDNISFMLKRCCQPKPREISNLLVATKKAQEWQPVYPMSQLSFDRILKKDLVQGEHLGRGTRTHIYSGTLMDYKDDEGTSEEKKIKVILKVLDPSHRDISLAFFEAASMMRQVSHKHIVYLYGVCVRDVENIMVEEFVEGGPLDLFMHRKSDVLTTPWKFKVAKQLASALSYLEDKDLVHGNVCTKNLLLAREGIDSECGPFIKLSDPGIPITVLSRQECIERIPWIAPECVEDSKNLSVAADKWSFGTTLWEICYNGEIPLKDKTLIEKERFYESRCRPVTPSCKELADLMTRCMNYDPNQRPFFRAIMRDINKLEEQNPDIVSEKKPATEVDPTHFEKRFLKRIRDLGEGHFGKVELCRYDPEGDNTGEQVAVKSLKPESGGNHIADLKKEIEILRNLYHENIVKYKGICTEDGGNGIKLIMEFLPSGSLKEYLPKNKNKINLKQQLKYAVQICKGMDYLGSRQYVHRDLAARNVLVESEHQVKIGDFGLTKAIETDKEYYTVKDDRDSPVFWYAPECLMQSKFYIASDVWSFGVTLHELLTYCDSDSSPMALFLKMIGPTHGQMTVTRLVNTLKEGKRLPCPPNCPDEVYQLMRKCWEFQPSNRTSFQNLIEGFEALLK

NC(=O)Nc1sc(-c2ccc(F)cc2)cc1C(N)=O [TPCA-1, 2-[(aminocarbonyl)amino]-5-(4-fluorophenyl)-3-thiophenecarboxamide]
pIC50: 7.36
